Laboratory results reported in patent publication US7763580B2, “Methods for treating conditions associated with the accumulation of excess extracellular matrix” (University of Utah Research Foundation, priority 1999, dated 2010).

Experiments:
anti-Thy-1 nephritis [1] = assay: Glomerular ECM staining after rtPA in anti-Thy-1 nephritis; format: in vivo, Sprague-Dawley rats
Protocol: (§1) Six Sprague-Dawley rats with were injected with phosphate buffered saline (PBS, as a control) and 18 rats were injected with 300 ug of mouse monoclonal OX7 antibody produced in the laboratory using commercially obtained hybridoma cells (American Type Culture Collecton (Rockville, Md., USA; Peters et al., Kidney Internatl. 54:1570-1580 (1998)) on day 1 to induce anti-Thy-1 nephritis. Injection of the anti rat-thymocyte antibody intravenously causes binding to an epitope in rat glomerular mesangial cells call Thy 1.1. The complement-mediated mesangial cell lysis that follows initiates a cascade of tissue injury, followed by a repair process that involves induction of TGFβ-driven production and deposition of ECM components. […] These alterations favor decreased plasmin generation which decreases matrix turnover and enhances matrix accumulation. Plasmin is the key to mesangial cell matrix turnover (Baricos et al, Kidney Int. 47:1037-1047 (1995)).
Three days after the initial injection, rtPA (Genentech, Inc., San Francisco, Calif.) in a formulation designed for rodent intravenous injection (GenBank E08757) or PBS was injected intravenously. Injections were repeated twice a day from day 3 to day 5. RtPA was injected i.v. at a dose of 1 mg/kg BW (n'6). Controls received saline (n'6). Glomerular staining for ECM matrix proteins (collagen type I and III, fibronection EDA+ and tenascin) and glomerular mRNA levels of TGFβ1, fibronectin and PAI-1 were evaluated at day 6. Localization of rtPA in nephritic glomeruli and the effect of rtPA on glomerular plasmin were investigated. Rats were sacrificed at day 6 and kidney tissues excised, fixed in formalin and frozen for histological analysis.
Kidney tissue sections were stained for extracellular matrix using Periodic Acid Schiff (PAS) using standard procedures and were stained for specific relevant matrix proteins such as Collagen I, Collagen IV, Fibronectin EDA and tenascin using standard immunohistochemical staining procedures. Matrix proteins were scored by image analysis of 30 glomeruli per rat.

anti-Thy-1 nephritis [2] = assay: Glomerular mRNA levels after rtPA in anti-Thy-1 nephritis; format: in vivo, Sprague-Dawley rats; settings: rtPA treated, day 6, FIG. 10
Protocol: as §1
Three days after the initial injection, rtPA (Genentech, Inc., San Francisco, Calif.) in a formulation designed for rodent intravenous injection (GenBank E08757) or PBS was injected intravenously. Injections were repeated twice a day from day 3 to day 5. […] Glomerular staining for ECM matrix proteins (collagen type I and III, fibronection EDA+ and tenascin) and glomerular mRNA levels of TGFβ1, fibronectin and PAI-1 were evaluated at day 6. […]

nephritic glomeruli = assay: Plasmin generation by isolated nephritic glomeruli after rtPA injection; format: in vivo, rats; settings: rtPA injected 10, 20 and 30 minutes before sacrifice; vs disease control
Protocol: rtPA was injected into nephritic rats 10, 20 and 30 minutes before sacrifice. At sacrifice, glomeruli were isolated and placed in culture with a chromogenic substrate for tPA.

anti-Thy 1 model = settings: monotherapy, anti-Thy 1 model (Peters et al.); L-arginine 1% in drinking water; cited from earlier work
[3] = test system: Normal fetal human mesangial cells; assay: Renin-induced TGFβ production by fetal human mesangial cells (ELISA); format: cell-based; settings: for renin-induced increase in TGFβ production: 10^−5 M inhibitor added at zero time with 10^−7 M human recombinant renin, FIG. 3
Protocol: Normal fetal human mesangial cells (Clonetics Corp., Clonetics, Walkersville, Md.) passaged 5 to 8 times, were plated (3,000 cell/cm^2) in 12 well plates in 2 ml of medium (Mesangial Basal Medium (Clonetics Corp.) containing 5% FCS, 10 μg/ml penicillin and 100 μg/ml streptomycin) and allowed to grow to confluence for 48 hours at 37EC, 5% CO2. Cultures were washed three times using sterile phosphate buffered saline at room temperature and then 2 ml/well of serum free MBM medium to induce quiescence. After 48 hours, the serum-free medium was removed and 2 ml/well of fresh serum-free medium was added. Human recombinant renin (Hoffman-La Roche Ltd., Basel, Switzerland) in concentrations from 10^−6 to 10^−12 M was added to each well. A blank and 5 ng/ml of TGFβ (R & D Systems, Minneapolis, Minn.) were used as controls. Cells and supernatants were harvested by centrifugation after 24 hrs of culture and frozen at ^−70EC until analysis. The total production and release of TGFβ into the culture supernatant was measured using an ELISA kit (R & D Systems). Induction of PAI-1 and fibronectin in the supernatant are also measured using anti-PAI-1 and anti-fibronectin antibodies in an ELISA to provide further confirmation of the inhibition of TGFβ. TGFβ, fibronectin and PAI-1 mRNA are measured using semi-quantitative RT-PCR.
Renin inhibitor Ro42-5892 (Hoffman-LaRoche, Basel, Switzerland), Losartan™ (Merck Pharmaceuticals, West Point, Pa.), Enalapril™ (Sigma Chemical Co., St. Louis, Mo., Prod. No. E6888), or TGFβ1 neutralizing antibody (R & D Systems) were added in the amounts indicated below to separate wells in triplicate to block the renin cascade at different sites after stimulation by renin: • 10^−5 M Renin Inhibitor R042-5892 (Hoffman-LaRoche) • 30 ng/ml Anti-TGFβ1 antibody (R & D Systems, #AB 101 NA) • 30 ng/ml Chicken IgG (control for anti-TGFβ1 antibody, R & D Systems, # AB 101 C) • 10^−5 M Enalapril™ (Sigma Chemical Co., St. Louis, Mo.) • 10^−5 M Losartan™ (Merck Pharmaceuticals, West Point, Pa.)
(§2) These inhibitors were added at zero time with 10^−7 M human recombinant renin (Hoffman-LaRoche).

[4] = test system: adult human mesangial cells; assay: Renin-induced TGFβ and fibronectin production by adult human mesangial cells (ELISA); format: cell-based; settings: for renin-induced increase in TGFβ production: 10^−5 M inhibitor added at zero time with 10^−7 M human recombinant renin, adult cells, FIG. 7
Protocol: Primary cultures of adult human mesangial cells were grown from human nephrectomy tissues using standard methods. Cells were passaged 4-7 times and then plated (3,000 cell/cm^2) in 12 well plates in 2 ml of medium (Mesangial Basal Medium (Clonetics Corp.) containing 5% FCS, 10 μg/ml penicillin and 100 μg/ml streptomycin) and allowed to grow to 70% confluency for 48 hours at 37EC, 5% CO2. Cultures were washed three times using sterile phosphate buffered saline at room temperature and then 2 ml/well of serum free MBM medium to induce quiescence. After 48 hours, the serum-free medium was removed and 2 ml/well of fresh serum-free medium was added for 24 hours. Human recombinant renin (HrRenin, Hoffman-La Roche Ltd., Basel, Switzerland) in concentrations from 10^−6 to 10^−12 M was added to each well for 24 hours. A blank (no HrRenin) was used as a control. Cells and supernatants were harvested by centrifugation after 24 hrs of culture and frozen at ^−70EC until analysis.
The total production and release of TGFβ into the culture supernatant was measured using an ELISA kit (R & D Systems). Induction of the matrix protein fibronectin (Fn) in the supernatant was measured using anti-fibronectin antibodies in an ELISA to provide further confirmation of induction of TGFβ. Renin-induced induction of TGFβ, fibronectin and PAI-1 mRNA were measured over time using semi-quantitative RT-PCR in a multiplex system where multiple cDNAs are amplified simultaneously according to Dostal et al., Anal. Biochem. 223:239-250 (1994), incorporated by reference herein Determinations were done in triplicate mesangial cell cultures.
Renin inhibitor Ro42-5892 (Hoffman-LaRoche, Basel, Switzerland), Losartan™ (Merck Pharmaceuticals, West Point, Pa.), Enalapril™ (Sigma Chemical Co., St. Louis, Mo., Prod. No. E6888), or TGFβ1 neutralizing antibody (R & D Systems) were added in the amounts indicated below to separate wells in triplicate to block the renin cascade at different sites after stimulation by renin: • 10^−5 M Renin Inhibitor R042-5892 (Hoffman-LaRoche) • 10^−5 M Enalapril™ (Sigma Chemical Co., St. Louis, Mo.) • 10^−5 M Losartan™ (Merck Pharmaceuticals, West Point, Pa.) • Controls included neutralizing antibody to TGFβ (ATG) and control IgG (TgG)
as §2

[5] = 10^−6M HrRenin, 24 hours, peak of dose response, p<0.05

Q: Which results are given for “rtPA: recombinant tissue type plasminogen activator (Genentech)”?
A: percentage of the glomerular area with positive staining, fibronectin EDA+ (anti-Thy-1 nephritis [1]; rtPA 1 mg/kg BW i.v. twice a day day 3 to 5, day 6, disease control 19±2, p<0.01): 14±1%; percentage of the glomerular area with positive staining, type IV collagen (anti-Thy-1 nephritis [1]; rtPA 1 mg/kg BW i.v. twice a day day 3 to 5, day 6, disease control 27±2, p<0.01): 23±1%; percentage of the glomerular area with positive staining, type I collagen (anti-Thy-1 nephritis [1]; rtPA 1 mg/kg BW i.v. twice a day day 3 to 5, day 6, disease control 33±1, p<0.001): 21±3%; percentage of the glomerular area with positive staining, laminin (anti-Thy-1 nephritis [1]; rtPA 1 mg/kg BW i.v. twice a day day 3 to 5, day 6, disease control 35±2, p<0.001): 25±2%; matrix accumulated in glomeruli (anti-Thy-1 nephritis [1]; tPA vs control, FIG. 8): overall decrease in matrix accumulated; Glomerular levels of TGFβ1, FN and PAI-1 mRNA (anti-Thy-1 nephritis [2]): unchanged; Plasmin generation by nephritic glomeruli (nephritic glomeruli): significantly elevated

Q: With `N=C(N)NCCC[C@H](N)C(=O)O` [L-arginine] as the molecule, how does the “reduction of markers of fibrotic disease” value (anti-Thy 1 model) read?
A: about 50%

Q: Which “renin-induced increase in TGFβ production” value (“renin-induced increase” for short) [3] does the source give for `CCCCc1nc(Cl)c(CO)n1Cc1ccc(-c2ccccc2-c2nn[nH]n2)cc1` [Losartan] here?
A: does not reduce the renin-induced increase in TGFβ production

Q: What about the “reduction of markers of fibrotic disease” value (anti-Thy 1 model) of the same molecule?
A: about 50%

Q: What about the “renin-induced increase” value [4] of the same molecule?
A: does not reduce the renin-induced increase in TGFβ production

Q: With `CC(C)(C)S(=O)(=O)C[C@@H](Cc1ccccc1)C(=O)N[C@@H](Cc1c[nH]cn1)C(=O)N[C@@H](CC1CCCCC1)[C@@H](O)[C@@H](O)C1CC1` [Ro 42-5892] as the molecule, how does the “renin-induced increase” value [3] read?
A: does not reduce the renin-induced increase in TGFβ production

Q: And the “renin-induced increase” value [4]?
A: does not reduce the renin-induced increase in TGFβ production

B1: HrRenin: Human recombinant renin (Hoffman-La Roche) (protein, UniProt P00797 67-406, looked up)
Renin: LTLGNTTSSVILTNYMDTQYYGEIGIGTPPQTFKVVFDTGSSNVWVPSSKCSRLYTACVYHKLFDASDSSSYKHNGTELTLRYSTGTVSGFLSQDIITVGGITVTQMFGEVTEMPALPFMLAEFDGVVGMGFIEQAIGRVTPIFDNIISQGVLKEDVFSFYYNRDSENSQSLGGQIVLGGSDPQHYEGNFHYINLIKTGVWQIQMKGVSVGSSTLLCEDGCLALVDTGASYISGSTSSIEKLMEALGAKKRLFDYVVKCNEGPTLPDISFHLGGKEYTLTSADYVFQESYSSKKLCTLAIHAMDIPPPTGPTWALGATFIRKFYTEFDRRNNRIGFALAR
Q: Which “TGFβ production by cultured human mesangial cells” value ([3]; renin 10^−6 to 10^−12 M, 24 hrs, FIG. 2) does the source give for B1 here?
A: increases the TGFβ production by cultured human mesangial cells in a dose-dependent manner

Q: And the “increase in Fn production” value [4, 5]?
A: 1.4 fold

Q: And the “increase in TGFβ production” value [4, 5]?
A: 2 fold

Q: What about the “TGFβ and Fn production, time course” value ([4]; 10^−7M HrRenin, 24 and 48 hours, p<0.03) of the same molecule?
A: significant increases in TGFβ and Fn production at 24 and 48 hours
